According to US20260216196A1, “IMIDAZO[1,2-A]PYRIDINE AND IMIDAZO[1,2-A]PYRAZINE DERIVATIVES AS MLLT1 AND MLLT3 INHIBITORS” (DARK BLUE THERAPEUTICS LTD., priority 2022, published 2026):
Where a name gives a salt, the structure may show the parent alone.

Columns and labels:
[1] = molecular target: MLLT3 (Homo sapiens, UniProt P42568); assay: HTRF IC50 determination assay, MLLT3 / H3K9cro peptide displacement; conditions: MLLT3 assay IC50 (nM), 6His tagged MLLT3, biotinylated H3K9cro peptide, compound 20 μM to 20 nM, 11 data points in duplicate
[2] = molecular target: MLLT1 (Homo sapiens, UniProt Q03111); assay: biochemical; conditions: MLLT1 assay IC50 (nM), HTRF, 6His tagged MLLT1, biotinylated H3K9cro peptide; compound 20 μM to 20 nM, 11 data points in duplicate
Chain of MLLT1 (Q03111 whole entry): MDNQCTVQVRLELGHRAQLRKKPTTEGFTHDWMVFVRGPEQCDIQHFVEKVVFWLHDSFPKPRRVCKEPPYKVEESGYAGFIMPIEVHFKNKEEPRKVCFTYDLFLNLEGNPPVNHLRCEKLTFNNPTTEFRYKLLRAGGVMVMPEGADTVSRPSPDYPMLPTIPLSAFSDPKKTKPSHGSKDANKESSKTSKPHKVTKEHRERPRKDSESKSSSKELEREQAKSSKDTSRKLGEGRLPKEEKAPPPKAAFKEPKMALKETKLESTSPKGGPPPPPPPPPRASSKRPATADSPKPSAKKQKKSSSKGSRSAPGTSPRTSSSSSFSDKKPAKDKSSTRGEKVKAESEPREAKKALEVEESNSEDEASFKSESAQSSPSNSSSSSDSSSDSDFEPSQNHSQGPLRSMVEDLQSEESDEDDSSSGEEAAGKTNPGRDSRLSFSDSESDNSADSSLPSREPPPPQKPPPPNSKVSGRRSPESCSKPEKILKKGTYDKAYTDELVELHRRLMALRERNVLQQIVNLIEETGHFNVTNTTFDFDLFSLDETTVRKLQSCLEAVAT

Chain of MLLT3 (P42568 whole entry): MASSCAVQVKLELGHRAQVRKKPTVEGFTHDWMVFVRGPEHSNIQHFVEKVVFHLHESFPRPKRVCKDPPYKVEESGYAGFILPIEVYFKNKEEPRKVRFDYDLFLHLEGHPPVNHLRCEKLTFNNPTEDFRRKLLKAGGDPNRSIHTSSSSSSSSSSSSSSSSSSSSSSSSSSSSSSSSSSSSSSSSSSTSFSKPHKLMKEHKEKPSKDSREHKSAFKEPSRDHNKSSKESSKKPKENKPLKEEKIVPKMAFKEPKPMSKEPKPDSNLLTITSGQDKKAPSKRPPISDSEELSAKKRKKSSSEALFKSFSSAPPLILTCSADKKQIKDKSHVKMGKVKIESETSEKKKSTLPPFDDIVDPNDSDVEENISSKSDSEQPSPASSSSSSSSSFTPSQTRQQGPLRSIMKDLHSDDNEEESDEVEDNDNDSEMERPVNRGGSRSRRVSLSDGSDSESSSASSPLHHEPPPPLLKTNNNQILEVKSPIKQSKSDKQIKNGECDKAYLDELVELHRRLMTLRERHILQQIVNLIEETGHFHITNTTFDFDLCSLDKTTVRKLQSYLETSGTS

IC50 [1] [nM]	IC50 [2] [nM]	Compound
1500 to 20000	150 to 1500	CN1CCCC1c1cn2cc(NC(=O)c3ccc(-n4cccn4)cc3)ccc2n1 (racemic) [Example 40, rac-N-[2-(1-methylpyrrolidin-2-yl)imidazo[1,2-a]pyridin-6-yl]-4-(1H-pyrazol-1-yl)benzamide]
150 to 1500	150 to 1500	CN1CCCC1c1cn2cc(NC(=O)c3ccc4scnc4c3)ccc2n1 (stereo not drawn) [Example 41]
> 20000	1500 to 20000	CN1CCCC1c1cn2cc(NC(=O)c3ccc4nc[nH]c4n3)ccc2n1 (racemic) [Example 36, rac-N-[2-(1-methylpyrrolidin-2-yl)imidazo[1,2-a]pyridin-6-yl]-3H-imidazo[4,5-b]pyridine-5-carboxamide]
1500 to 20000	1500 to 20000	COc1ccc(-c2nc(C(=O)Nc3ccc4nc(C5CCCN5C)cn4c3)cs2)cc1 (racemic) [Example 38, rac-2-(4-methoxyphenyl)-N-[2-(1-methylpyrrolidin-2-yl)imidazo[1,2-a]pyridin-6-yl]-1,3-thiazole-4-carboxamide]
150 to 1500	150 to 1500	CN1CCCC1c1cn2cc(NC(=O)c3ccc4c(c3)nnn4C3CCCCC3)ccc2n1 (racemic) [Example 45, rac-1-cyclohexyl-N-[2-(1-methylpyrrolidin-2-yl)imidazo[1,2-a]pyridin-6-yl]-1H-1,2,3-benzotriazole-5-carboxamide]
150 to 1500	150 to 1500	Cc1nc(-c2ccc(C(=O)Nc3ccc4nc(C5CCCN5C)cn4c3)cc2)cs1 (racemic) [Example 16, rac-4-(2-methyl-1,3-thiazol-4-yl)-N-[2-(1-methylpyrrolidin-2-yl)imidazo[1,2-a]pyridin-6-yl]benzamide]
1500 to 20000	150 to 1500	CN1CCCC1c1cn2cc(NC(=O)c3cccc(-n4cccn4)c3)ccc2n1 (racemic) [Example 43, rac-N-[2-(1-methylpyrrolidin-2-yl)imidazo[1,2-a]pyridin-6-yl]-3-(1H-pyrazol-1-yl)benzamide]
150 to 1500		CCc1nn(C)c2ccc(C(=O)Nc3ccc4nc(C5CCCN5C)cn4c3)cc12 (racemic) [Example 61, rac-3-ethyl-1-methyl-N-[2-(1-methylpyrrolidin-2-yl)imidazo[1,2-a]pyridin-6-yl]-1H-indazole-5-carboxamide]
150 to 1500	150 to 1500	CN1CCC[C@@H]1c1cn2cc(NC(=O)c3ccc4nnn(C)c4c3)ncc2n1 [Example 97, 3-methyl-N-{2-[(2R)-1-methylpyrrolidin-2-yl]imidazo[1,2-a]pyrazin-6-yl}-1,2,3-benzotriazole-5-carboxamide]
150 to 1500	150 to 1500	CN1CCCCC1c1cn2cc(NC(=O)c3ccc4c(cnn4C)c3)ccc2n1 (single isomer, unassigned) [Example 28]
150 to 1500	< 150	Cc1nc(NC(=O)c2cc3cnn(C)c3cc2F)cn2cc([C@H]3CCCN3C)nc12 [Example 91, 6-fluoro-1-methyl-N-{8-methyl-2-[(2R)-1-methylpyrrolidin-2-yl]imidazo[1,2-a]pyrazin-6-yl}indazole-5-carboxamide]
1500 to 20000	150 to 1500	CN1CCCC1c1cn2cc(NC(=O)c3ccc(-n4cncn4)cc3)ccc2n1 (racemic) [Example 12, rac-N-[2-(1-methylpyrrolidin-2-yl)imidazo[1,2-a]pyridin-6-yl]-4-(1H-1,2,4-triazol-1-yl)benzamide]
1500 to 20000	150 to 1500	COc1cc2c(cnn2C)cc1C(=O)Nc1cn2cc([C@H]3CCCN3C)nc2cn1 [Example 96, 6-methoxy-1-methyl-N-{2-[(2R)-1-methylpyrrolidin-2-yl]imidazo[1,2-a]pyrazin-6-yl}indazole-5-carboxamide]
1500 to 20000	150 to 1500	CN1CCCC1c1cn2cc(NC(=O)c3ccc4cncnc4c3)ccc2n1 (racemic) [Example 47, rac-N-[2-(1-methylpyrrolidin-2-yl)imidazo[1,2-a]pyridin-6-yl]quinazoline-7-carboxamide]
150 to 1500		CCC1CC(c2cn3cc(NC(=O)c4ccc5c(C)nn(C)c5c4)ncc3n2)N(C)C1 (single isomer, unassigned) [Example 78, N-{2-[4-ethyl-1-methylpyrrolidin-2-yl]imidazo[1,2-a]pyrazin-6-yl}-1,3-dimethyl-1H-indazole-6-carboxamide]

Second part, the molecule before the results:

Compound	IC50 [1] [nM]	IC50 [2] [nM]
COC1CC(c2cn3cc(NC(=O)c4ccc5c(cnn5C)c4)ccc3n2)N(C)C1 (racemic) [Example 65, rac-N-[2-(4-methoxy-1-methylpyrrolidin-2-yl)imidazo[1,2-a]pyridin-6-yl]-1-methyl-1H-indazole-5-carboxamide]	1500 to 20000	150 to 1500
CN1CCCC1c1cn2cc(NC(=O)c3ccc(-n4cccn4)nc3)ccc2n1 (racemic) [Example 13, rac-N-[2-(1-methylpyrrolidin-2-yl)imidazo[1,2-a]pyridin-6-yl]-6-(1H-pyrazol-1-yl)pyridine-3-carboxamide]	1500 to 20000	1500 to 20000
CN1CCC[C@@H]1c1cn2cc(NC(=O)c3ccc4c(N5CCCCC5)nn(C)c4c3)ncc2n1 [Example 98, 1-methyl-N-{2-[(2R)-1-methylpyrrolidin-2-yl]imidazo[1,2-a]pyrazin-6-yl}-3-(piperidin-1-yl)indazole-6-carboxamide]	150 to 1500	150 to 1500
CN1CCCC1c1cn2cc(NC(=O)c3ccc4ncoc4c3)ccc2n1 (racemic) [Example 37, rac-N-[2-(1-methylpyrrolidin-2-yl)imidazo[1,2-a]pyridin-6-yl]-1,3-benzoxazole-6-carboxamide]	1500 to 20000	150 to 1500
CCc1nnc2cc(C(=O)Nc3ccc4nc(C5CCCN5C)cn4c3)ccn12 (racemic) [Example 35, rac-3-ethyl-N-[2-(1-methylpyrrolidin-2-yl)imidazo[1,2-a]pyridin-6-yl]-[1,2,4]triazolo[4,3-a]pyridine-7-carboxamide formate]	1500 to 20000	1500 to 20000
Cc1nn(C)c2cc(C(=O)Nc3cn4cc([C@@H]5CCCN5C)nc4cn3)ccc12 (single isomer, unassigned) [Example 69]	1500 to 20000	1500 to 20000
CCC1CC(c2cn3cc(NC(=O)c4ccc5c(C)nn(C)c5c4)ncc3n2)N(C)C1 (single isomer, unassigned) [Example 80, N-{2-[4-ethyl-1-methylpyrrolidin-2-yl]imidazo[1,2-a]pyrazin-6-yl}-1,3-dimethyl-1H-indazole-6-carboxamide]	< 150	
CN1C[C@@H](F)C[C@@H]1c1cn2cc(NC(=O)c3ccc4c(cnn4C)c3)ncc2n1 [Example 83, N-{2-[(2R,4S)-4-fluoro-1-methylpyrrolidin-2-yl]imidazo[1,2-a]pyrazin-6-yl}-1-methylindazole-5-carboxamide]	150 to 1500	150 to 1500
CN1CC2(CCCC2)CC1c1cn2cc(NC(=O)c3ccc4c(cnn4C)c3)ccc2n1 (racemic) [Example 3, rac-1-methyl-N-(2-{2-methyl-2-azaspiro[4.4]nonan-3-yl}imidazo[1,2-a]pyridin-6-yl)indazole-5-carboxamide]	150 to 1500	150 to 1500
CN1CCCC1c1cn2cc(NC(=O)c3cc4ccncc4o3)ccc2n1 (racemic) [Example 54, rac-N-[2-(1-methylpyrrolidin-2-yl)imidazo[1,2-a]pyridin-6-yl]furo[2,3-c]pyridine-2-carboxamide]	1500 to 20000	150 to 1500
Cc1nn(C)c2cc(C(=O)Nc3ccc4nc(C5CCCN5C)cn4c3)ccc12 (racemic) [Example 14, rac-1,3-dimethyl-N-[2-(1-methylpyrrolidin-2-yl)imidazo[1,2-a]pyridin-6-yl]-1H-indazole-6-carboxamide]	150 to 1500	150 to 1500
Cc1nn(C)c2cc(C(=O)Nc3cn4cc([C@H]5CCCN5)nc4cn3)ccc12 [Example 76, 1,3-dimethyl-N-[2-[(2R)-pyrrolidin-2-yl]imidazo[1,2-a]pyrazin-6-yl]indazole-6-carboxamide]	1500 to 20000	150 to 1500
Cc1nn(C)c2cc(C(=O)Nc3cn4cc(C5CN(C)CCN5C)nc4cn3)ccc12 (single isomer, unassigned) [Example 67]	150 to 1500	150 to 1500
CN1CCOCC1c1cn2cc(NC(=O)c3ccc4c(cnn4C)c3)ccc2n1 (racemic) [Example 2, rac-1-methyl-N-[2-(4-methylmorpholin-3-yl)imidazo[1,2-a]pyridin-6-yl]indazole-5-carboxamide]	1500 to 20000	1500 to 20000
Cc1nc(NC(=O)c2cc3cnc(C)n3cc2F)cn2cc([C@H]3CCCN3C)nc12 [Example 93, 6-fluoro-3-methyl-N-{8-methyl-2-[(2R)-1-methylpyrrolidin-2-yl]imidazo[1,2-a]pyrazin-6-yl}imidazo[1,5-a]pyridine-7-carboxamide]	150 to 1500	150 to 1500
Cc1ncc(-c2ccc(C(=O)Nc3ccc4nc(C5CCCN5C)cn4c3)c(F)c2)s1 (single isomer, unassigned) [Example 25]	150 to 1500	150 to 1500
Cc1nn(C)c2sc(C(=O)Nc3ccc4nc(C5CCCN5C)cn4c3)cc12 (racemic) [Example 18, rac-1,3-dimethyl-N-[2-(1-methylpyrrolidin-2-yl)imidazo[1,2-a]pyridin-6-yl]-1H-thieno[2,3-c]pyrazole-5-carboxamide]	1500 to 20000	1500 to 20000
CCC1CC(c2cn3cc(NC(=O)c4ccc5c(C)nn(C)c5c4)ncc3n2)N(C)C1 (single isomer, unassigned) [Example 79, N-{2-[4-ethyl-1-methylpyrrolidin-2-yl]imidazo[1,2-a]pyrazin-6-yl}-1,3-dimethyl-1H-indazole-6-carboxamide]	< 150	
CCC1CC(c2cn3cc(NC(=O)c4ccc5c(C)nn(C)c5c4)ncc3n2)N(C)C1 (single isomer, unassigned) [Example 77, N-{2-[4-ethyl-1-methylpyrrolidin-2-yl]imidazo[1,2-a]pyrazin-6-yl}-1,3-dimethyl-1H-indazole-6-carboxamide]	1500 to 20000	
